The results in this text go back to patent publication US11078170B2 (Assembly Biosciences, Inc., priority 2017, dated 2021).

The assay has as its system HBV viral production from HepAD38 cells. The assay is described as follows: Activity of test compounds on viral production from HepAD38 cells (viral load by qPCR of HBV core sequence in supernatant). It counts as cell-based. To be noted: Hepatitis B virus, 120 h, 5 days incubation, HBV DNA in supernatant by qPCR, top concentration 10 μM, read-out: Viral Load EC50 Activity range. A digest of the protocol:
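HepAD38 cells, 50,000/well in tetracycline-free 2% FBS medium, treated 5 days at 37° C. with compound from 10 μM top concentration. HBV DNA in supernatant quantified by TaqMan qPCR of core sequence against DNA standards, relative to DMSO wells; CellTiter-Glo viability read in parallel. EC50/CC50 from four-parameter logistic fit.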

Where only a bound is given, the exact number is not on record here.

Broadly, the EC50 is the concentration at which the effect is half-maximal. Regarding `CN1[C@@H](C(=O)Nc2ccc(F)c(Cl)c2)C[C@@H](c2ccc(-c3cnn(C(F)(F)F)c3)s2)NS1(=O)=O` [HBV-CSU-321-ISO-II, Cis-N-(3-Chloro-4-fluorophenyl)-2-methyl-5-(5-(1-(trifluoromethyl)-1H-pyrazol-4-yl)thiophen-2-yl)-1,2,6-thiadiazinane-3-carboxamide 1,1-dioxide], the EC50 is greater than 5000 nM. To `CN1[C@@H](C(=O)Nc2ccc(F)c(Cl)c2)C[C@@H](c2nccs2)NS1(=O)=O` [HBV-CSU-027-ISO-I, Cis-N-(3-chloro-4-fluorophenyl)-2-methyl-5-(thiazol-2-yl)-1,2,6-thiadiazinane-3-carboxamide 1,1-dioxide] belongs greater than 5000 nM; to `CN1[C@@H](C(=O)Nc2ccc(F)c(Cl)c2)C[C@@H](c2ncc(-c3ccn(C)n3)s2)NS1(=O)=O` (stereo in doubt) [HBV-CSU-280-ISO-II, Cis-N-(3-Chloro-4-fluorophenyl)-2-methyl-5-(5-(1-methyl-1H-pyrazol-3-yl)thiazol-2-yl)-1,2,6-thiadiazinane-3-carboxamide 1,1-dioxide], less than 1000 nM; to `CN1[C@H](C(=O)Nc2ccc(F)c(Cl)c2)C[C@H](c2ccc(F)cc2)NS1(=O)=O` [HBV-CSU-112-ISO-I, Cis-N-(3-Chloro-4-fluorophenyl)-5-(4-fluorophenyl)-2-methyl-1,2,6-thiadiazinane-3-carboxamide 1,1-dioxide], less than 1000 nM. The figure for `CN1[C@H](C(=O)Nc2ccc(F)c(Cl)c2)C[C@H](c2ccc(-c3cccs3)s2)NS1(=O)=O` [HBV-CSU-162-ISO-I, Cis-N-5-([2,2′-bithiophen]-5-yl)-N-(3-chloro-4-fluorophenyl)-2-methyl-1,2,6-thiadiazinane-3-carboxamide 1,1-dioxide] is less than 1000 nM; for `CN1[C@H](C(=O)Nc2ccc(F)c(Cl)c2)C[C@H](c2ccc(OCC(=O)O)cc2)NS1(=O)=O` (relative stereo) [HBV-CSU-216-ISO-I, Cis-2-(4-(5-((3-Chloro-4-fluorophenyl)carbamoyl)-6-methyl-1,1-dioxido-1,2,6-thiadiazinan-3-yl)phenoxy)acetic acid] it is 1000 to 5000 nM. To `CN1C(C(=O)Nc2ccc(F)c(Cl)c2)CC(c2ccc3ncsc3c2)NS1(=O)=O` (stereo not drawn) [HBV-CSU-273, Cis-5-(benzo[d]thiazol-6-yl)-N-(3-chloro-4-fluorophenyl)-2-methyl-1,2,6-thiadiazinane-3-carboxamide 1,1-dioxide] belongs less than 1000 nM; to `CN1[C@H](C(=O)Nc2ccc(F)c(Cl)c2)C[C@H](c2cc(-c3cnn(C)c3)c(Cl)s2)NS1(=O)=O` [HBV-CSU-306-ISO-I, Cis-5-(5-chloro-4-(1-methyl-1-pyrazol-4-yl)thiophen-2-yl)-N-(3-chloro-4-fluorophenyl)-2-methyl-1,2,6-thiadiazinane-3-carboxamide 1,1-dioxide], less than 1000 nM; to `COCCN1C(c2cccs2)CC(C(=O)Nc2ccc(F)c(Cl)c2)N(C)S1(=O)=O` (stereo not drawn) [HBV-CSU-064, Cis-N-(3-Chloro-4-fluorophenyl)-6-(2-methoxyethyl)-2-methyl-5-(thiophen-2-yl)-1,2,6-thiadiazinane-3-carboxamide 1,1-dioxide], greater than 5000 nM. In the case of `CN1[C@@H](C(=O)Nc2ccc(F)c(Cl)c2)C[C@@H](c2cc(-c3ncnn3C)cs2)NS1(=O)=O` [HBV-CSU-327-ISO-II, Cis-N-(3-Chloro-4-fluorophenyl)-2-methyl-5-(4-(1-methyl-1H-1,2,4-triazol-5-yl)thiophen-2-yl)-1,2,6-thiadiazinane-3-carboxamide 1,1-dioxide], the concentration giving a half-maximal response (EC50) lay in the range of 1000 to 5000 nM. To `CN1C(C(=O)Nc2ccc(F)c(Cl)c2)CC(c2ccc(Br)s2)NS1(=O)=O` (centres unmarked) [HBV-CSU-114, 5-(5-Bromothiophen-2-yl)-N-(3-chloro-4-fluorophenyl)-2-methyl-1,2,6-thiadiazinane-3-carboxamide 1,1-dioxide] belongs less than 1000 nM; to `[2H]C1[C@]([2H])(C(=O)Nc2ccc(F)c(Cl)c2)N(C([2H])([2H])[2H])S(=O)(=O)N[C@]1([2H])c1ncc(-c2cn(C([2H])([2H])[2H])cn2)s1` (stereo in doubt) [HBV-CSU-339-ISO-II, Cis-N-(3-Chloro-4-fluorophenyl)-2-(methyl-d3)-5-(5-(1-(methyl-d3)-1H-imidazol-4-yl)thiazol-2-yl)-1,2,6-thiadiazinane-3,4,5-d3-3-carboxamide 1,1-dioxide], 1000 to 5000 nM; to `CN1C(C(=O)Nc2ccc(F)c(Cl)c2)CC(c2cccnc2)NS1(=O)=O` (stereo not drawn) [HBV-CSU-033, Cis-N-(3-Chloro-4-fluorophenyl)-2-methyl-5-(pyridin-3-yl)-1,2,6-thiadiazinane-3-carboxamide 1,1-dioxide], less than 1000 nM.

With `COC(C)(C)CCN1[C@H](C(=O)Nc2ccc(F)c(Cl)c2)C[C@H](c2nccs2)NS1(=O)=O` [HBV-CSU-083-ISO-II, Cis-N-(3-Chloro-4-fluorophenyl)-2-(3-methoxy-3-methylbutyl)-5-(thiazol-2-yl)-1,2,6-thiadiazinane-3-carboxamide 1,1-dioxide], the EC50 is greater than 5000 nM. To `CN1[C@@H](C(=O)Nc2ccc(F)c(Cl)c2)C[C@@H](c2ncc(-c3ccccc3)s2)NS1(=O)=O` belongs 1000 to 5000 nM; to `O=C(Nc1ccc(F)c(Cl)c1)C1CC(c2nccs2)NS(=O)(=O)N1CCCN1CCOCC1` (stereo not drawn) [HBV-CSU-103, Cis-N-(3-Chloro-4-fluorophenyl)-2-(3-morpholinopropyl)-5-(thiazol-2-yl)-1,2,6-thiadiazinane-3-carboxamide 1,1-dioxide], greater than 5000 nM.

For the molecule `CN1C(C(=O)Nc2ccc(F)c(Br)c2)CC(c2cc(Br)cs2)NS1(=O)=O` (racemic) [HBV-CSU-258, Cis-N-(3-Bromo-4-fluorophenyl)-5-(4-bromothiophen-2-yl)-2-methyl-1,2,6-thiadiazinane-3-carboxamide 1,1-dioxide], the EC50 is less than 1000 nM. To `CN1C(C(=O)Nc2ccc(F)c(Cl)c2)CC(c2cccc(O)c2)NS1(=O)=O` (stereo not drawn) [HBV-CSU-205, Cis-N-(3-chloro-4-fluorophenyl)-5-(3-hydroxyphenyl)-2-methyl-1,2,6-thiadiazinane-3-carboxamide 1,1-dioxide] belongs less than 1000 nM.

With `CN1[C@@H](C(=O)Nc2ccc(F)c(Cl)c2)C[C@@H](c2ncc(-c3ccc(F)cc3)s2)NS1(=O)=O` [HBV-CSU-248-ISO-II, Cis-N-(3-Chloro-4-fluorophenyl)-5-(5-(4-fluorophenyl)thiazol-2-yl)-2-methyl-1,2,6-thiadiazinane-3-carboxamide 1,1-dioxide], the EC50 is greater than 5000 nM. The figure for `O=C(Nc1ccc(F)c(Cl)c1)[C@H]1C[C@@H](c2nccs2)NS(=O)(=O)N1CCc1c[nH]nn1` [HBV-CSU-092-ISO-II, Cis-2-(2-(1H-1,2,3-Triazol-4-yl)ethyl)-N-(3-chloro-4-fluorophenyl)-5-(thiazol-2-yl)-1,2,6-thiadiazinane-3-carboxamide 1,1-dioxide] is greater than 5000 nM; for `CN1[C@H](C(=O)Nc2cccc(Br)c2)C[C@H](c2cccs2)NS1(=O)=O` [HBV-CSU-017-ISO-I, Cis-N-(3-Bromophenyl)-2-methyl-5-(thiophen-2-yl)-1,2,6-thiadiazinane-3-carboxamide 1,1-dioxide] it is less than 1000 nM; for `CN1[C@@H](C(=O)Nc2ccc(F)c(Cl)c2)C[C@@H](c2ccc(-c3nncn3C)s2)NS1(=O)=O` [HBV-CSU-324-ISO-II, Cis-N-(3-Chloro-4-fluorophenyl)-2-methyl-5-(5-(4-methyl-4H-1,2,4-triazol-3-yl)thiophen-2-yl)-1,2,6-thiadiazinane-3-carboxamide 1,1-dioxide] it is 1000 to 5000 nM. The figure for `[2H]C1[C@]([2H])(c2ncc(-c3cn(C([2H])([2H])[2H])cn3)s2)NS(=O)(=O)N(C([2H])([2H])[2H])[C@]1([2H])C(=O)Nc1ccc(F)c(Cl)c1` (stereo in doubt) [HBV-CSU-339-ISO-I, Cis-N-(3-Chloro-4-fluorophenyl)-2-(methyl-d3)-5-(5-(1-(methyl-d3)-1H-imidazol-4-yl)thiazol-2-yl)-1,2,6-thiadiazinane-3,4,5-d3-3-carboxamide 1,1-dioxide] is less than 1000 nM; for `CN1[C@H](C(=O)Nc2ccc(F)c(Cl)c2)C[C@H](c2cccc(-c3cnn(C)c3)c2)NS1(=O)=O` [HBV-CSU-247-ISO-I, Cis-N-(3-chloro-4-fluorophenyl)-2-methyl-5-(3-(1-methyl-1H-pyrazol-4-yl)phenyl)-1,2,6-thiadiazinane-3-carboxamide 1,1-dioxide] it is greater than 5000 nM. The figure for `CN1[C@H](C(=O)Nc2ccc(F)c(Cl)c2)C[C@H](c2cc(-c3cn[nH]c3)cs2)NS1(=O)=O` [HBV-CSU-245-ISO-I] is less than 1000 nM.

As for `CSCCN1[C@H](C(=O)Nc2ccc(F)c(Cl)c2)C[C@H](c2nccs2)NS1(=O)=O` [HBV-CSU-109-ISO-II, Cis-N-(3-Chloro-4-fluorophenyl)-2-(2-(methylthio)ethyl)-5-(thiazol-2-yl)-1,2,6-thiadiazinane-3-carboxamide 1,1-dioxide], the 50% effective concentration (EC50) was less than 1000 nM.

For `CN1[C@@H](C(=O)Nc2ccc(F)c(Cl)c2)C[C@@H](c2ccc(-c3ccc(NS(C)(=O)=O)cc3)s2)NS1(=O)=O` (relative stereo) [HBV-CSU-163-ISO-II, Cis-N-(3-chloro-4-fluorophenyl)-2-methyl-5-(5-(4-(methylsulfonamido)phenyl)thiophen-2-yl)-1,2,6-thiadiazinane-3-carboxamide 1,1-dioxide], the EC50 was less than 1000 nM. Regarding `CN1C(C(=O)Nc2ccc(F)c(Cl)c2)CC(c2ncc(-c3ccc(F)cn3)s2)NS1(=O)=O` (racemic) [HBV-CSU-252, Cis-N-(3-Chloro-4-fluorophenyl)-5-(5-(5-fluoropyridin-2-yl)thiazol-2-yl)-2-methyl-1,2,6-thiadiazinane-3-carboxamide 1,1-dioxide], the EC50 is less than 1000 nM. To `CN1[C@H](C(=O)Nc2ccc(F)c(Br)c2)C[C@H](c2nccs2)NS1(=O)=O` [HBV-CSU-060-ISO-II, Cis-N-(3-bromo-4-fluorophenyl)-2-methyl-5-(thiazol-2-yl)-1,2,6-thiadiazinane-3-carboxamide 1,1-dioxide] belongs less than 1000 nM.
